Assay results taken from the supplement of paper PMC4862054.

Columns and labels:
Conditions in all cases: incubation time: 72 h
[1] = tested on: CAL-120; assay: normalised response (% of control), CellTox Green; higher = less cell death (100 = DMSO, 0 = benzethonium chloride kill control)
Procedure, shortened: (§1)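 Breast cancer cell lines, seeded at 20 µl suspension per well, were incubated for 72 h in 384-well plates containing compound at 5 concentrations. These concentrations rose in 10-fold steps over a 10,000-fold range set for each compound. CellTox Green fluorescence (485/520 nm) was read, then CellTiter-Glo luminescence after 10 min at room temperature, and each plate was normalised to 0.1 % DMSO (100) and a positive kill control (0). Values are normalised signals, each at one concentration.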

[2] = tested on: DU-4475; assay: as above
Procedure, shortened: as §1

[3] = tested on: HCC1599; assay: as above
Procedure, shortened: as §1

[4] = tested on: MFM-223; assay: as above
Procedure, shortened: as §1

[5] = tested on: CAL-85-1; assay: as above
Procedure, shortened: as §1

[6] = tested on: MDA-MB-453; assay: as above
Procedure, shortened: as §1

[7] = tested on: MDA-MB-468; assay: as above
Procedure, shortened: as §1

[8] = tested on: HDQ-P1; assay: as above
Procedure, shortened: as §1

[9] = tested on: HCC1937; assay: as above
Procedure, shortened: as §1

[10] = tested on: MDA-MB-231; assay: as above
Procedure, shortened: as §1

[11] = tested on: BT-474; assay: as above
Procedure, shortened: as §1

[12] = tested on: HCC1143; assay: as above
Procedure, shortened: as §1

[13] = tested on: MCF-10A; assay: as above
Procedure, shortened: as §1

[14] = tested on: BT-549; assay: as above
Procedure, shortened: as §1

[15] = tested on: MDA-MB-436; assay: as above
Procedure, shortened: as §1

[16] = tested on: Hs578T; assay: as above
Procedure, shortened: as §1

[17] = tested on: CAL-51; assay: as above
Procedure, shortened: as §1

[18] = tested on: CAL-148; assay: as above
Procedure, shortened: as §1

[19] = tested on: HCC1599; assay: drug sensitivity score (DSS), CellTiter-Glo (DSS (AUC-based score)); higher = stronger drug effect (viability inhibition or cytotoxicity); extreme values may be limits of the assay
Procedure, shortened: (§2)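 Each compound occupied 5 concentrations in 10-fold steps over its own 10,000-fold range in 384-well plates, into which breast cancer cell lines were seeded as 20 µl suspension. Following 72 h of incubation, CellTox Green fluorescence (485/520 nm) was measured, and CellTiter-Glo luminescence was measured after 10 min at room temperature. Plates were individually normalised to 0.1 % DMSO and a positive kill control. From the area under the fitted dose-response curve, a drug sensitivity score was calculated.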

[20] = tested on: CAL-85-1; assay: as above
Procedure, shortened: as §2

[21] = tested on: HDQ-P1; assay: as above
Procedure, shortened: as §2

[22] = tested on: SK-BR-3; assay: as above
Procedure, shortened: as §2

SMILES | normalised response [1] [%] | normalised response [2] [%] | normalised response [3] [%] | normalised response [4] [%] | normalised response [5] [%] | normalised response [6] [%] | normalised response [7] [%] | normalised response [8] [%] | normalised response [9] [%] | normalised response [10] [%] | normalised response [11] [%] | normalised response [12] [%] | normalised response [13] [%] | normalised response [14] [%] | normalised response [15] [%] | normalised response [16] [%] | normalised response [17] [%] | normalised response [18] [%] | drug sensitivity score [19] | drug sensitivity score [20] | drug sensitivity score [21] | drug sensitivity score [22]
CC(=O)O[C@@]12CO[C@@H]1C[C@H](O)[C@@]1(C)C(=O)[C@H](O)C3=C(C)[C@@H](OC(=O)[C@H](O)[C@@H](NC(=O)OC(C)(C)C)c4ccccc4)C[C@@](O)([C@@H](OC(=O)c4ccccc4)[C@H]21)C3(C)C [Docetaxel] (1000 nM) | 89.9 | 98.5 | 88.5 | 53.9 | 29.6 | 92.4 | 134 | 35.5 | 46.5 | -47.2 | 58.4 | 55.4 | 36.3 | 38.7 | 71.9 | 22.6 | 45.6 | 84.2 | – | – | – | –
Oc1ncnc2[nH]ncc12 [Allopurinol] | – | – | – | – | – | – | – | – | – | – | – | – | – | – | – | – | – | – | 0 | 0 | 0 | 0
Cn1cnc2c(F)c(Nc3ccc(Br)cc3Cl)c(C(=O)NOCCO)cc21 [Selumetinib] (10000 nM) | 87.3 | 62.3 | 108 | 100 | 108 | 101 | -53.9 | 75 | 98.3 | 21.6 | 99.4 | 97 | 74.4 | 99.7 | 101 | 89.5 | 101 | 96 | – | – | – | –
CC1=C2C[C@H]3[C@@H](CC=C4C[C@@H](O)CC[C@@]43C)[C@@H]2CC[C@]12O[C@@H]1C[C@H](C)CN[C@H]1[C@H]2C [Cyclopamine] | – | – | – | – | – | – | – | – | – | – | – | – | – | – | – | – | – | – | 0 | 0 | 0 | 0
Cn1cc(C2=Nc3cc(NC(=O)C(N)C4CCCCC4)cc4c3C2=CNNC4=O)cn1 (centres undefined) (10000 nM) | 89.9 | 83.1 | 82.4 | 10.9 | 59.8 | 41.1 | 13.5 | -67.6 | 95.9 | 54.2 | 97.1 | 115 | 31.3 | 39.3 | 92.7 | 84.6 | -9.5 | 58.5 | – | – | – | –
CC(=O)N(O)CCCCCNC(=O)CCC(=O)N(O)CCCCCNC(=O)CCC(=O)N(O)CCCCCN [Deferoxamine] | – | – | – | – | – | – | – | – | – | – | – | – | – | – | – | – | – | – | 1.95 | 0 | 2.75 | 4.14
Oc1ncnc2[nH]ncc12 [Allopurinol] (10000 nM) | 101 | 98.6 | 102 | 94.1 | 83.4 | 75.7 | 79 | 108 | 76 | 108 | 104 | 117 | 102 | 89.5 | 99.7 | 70.8 | 116 | 98 | – | – | – | –
O=C1CN2Cc3c(ccc(Cl)c3Cl)N=C2N1 [Anagrelide] | – | – | – | – | – | – | – | – | – | – | – | – | – | – | – | – | – | – | 0 | 0 | 0 | 0
O=C1CN2Cc3c(ccc(Cl)c3Cl)N=C2N1 [Anagrelide] (10000 nM) | 98.9 | 96.3 | 99 | 69.6 | 108 | 100 | 67 | 78.9 | 106 | 94.7 | 101 | 85.1 | 53.2 | 89.6 | 94.9 | 100 | 54.9 | 60.6 | – | – | – | –
C[C@]12CC[C@@H]3c4ccc(OC(=O)N(CCCl)CCCl)cc4CC[C@H]3[C@@H]1CC[C@@H]2O [Estramustine] | – | – | – | – | – | – | – | – | – | – | – | – | – | – | – | – | – | – | 0 | 0 | 0 | 0
CC1=C2C[C@H]3[C@@H](CC=C4C[C@@H](O)CC[C@@]43C)[C@@H]2CC[C@]12O[C@@H]1C[C@H](C)CN[C@H]1[C@H]2C [Cyclopamine] (10000 nM) | 97.8 | 103 | 101 | 89.6 | 66.8 | 103 | 155 | 110 | – | 116 | 98 | – | 58.9 | 59 | 92.2 | 51.4 | 98.9 | 100 | – | – | – | –
Cn1cc(C2=Nc3cc(NC(=O)C(N)C4CCCCC4)cc4c3C2=CNNC4=O)cn1 (centres undefined) | – | – | – | – | – | – | – | – | – | – | – | – | – | – | – | – | – | – | 20.3 | 13.3 | 3.25 | 19.1
COc1cc(F)c(F)c(Nc2ccc(I)cc2F)c1NS(=O)(=O)C1(C[C@H](O)CO)CC1 [Refametinib] | – | – | – | – | – | – | – | – | – | – | – | – | – | – | – | – | – | – | 0 | 10.4 | 12.7 | 0
Cn1cnc2c(F)c(Nc3ccc(Br)cc3Cl)c(C(=O)NOCCO)cc21 [Selumetinib] | – | – | – | – | – | – | – | – | – | – | – | – | – | – | – | – | – | – | 0.803 | 0 | 11.1 | 0
C[C@]1(O)C[C@@H](c2nc(-c3ccc4ccc(-c5ccccc5)nc4c3)c3c(N)nccn32)C1 [Linsitinib] | – | – | – | – | – | – | – | – | – | – | – | – | – | – | – | – | – | – | 2.37 | 2.88 | 5.33 | 6.62
CC1(C)CNc2cc(NC(=O)c3cccnc3NCc3ccncc3)ccc21 [Motesanib] | – | – | – | – | – | – | – | – | – | – | – | – | – | – | – | – | – | – | 0 | 0 | 0 | 0
CC(=O)O[C@@]12CO[C@@H]1C[C@H](O)[C@@]1(C)C(=O)[C@H](O)C3=C(C)[C@@H](OC(=O)[C@H](O)[C@@H](NC(=O)OC(C)(C)C)c4ccccc4)C[C@@](O)([C@@H](OC(=O)c4ccccc4)[C@H]21)C3(C)C [Docetaxel] | – | – | – | – | – | – | – | – | – | – | – | – | – | – | – | – | – | – | 16.7 | 25.6 | 10.6 | 31.4
COc1cc2c(cc1O)CC[C@@H]1[C@@H]2CC[C@]2(C)[C@@H](O)CC[C@@H]12 [2-methoxyestradiol] (10000 nM) | 78.8 | 97.4 | 89 | 52.5 | 51.6 | 94.9 | 77.4 | 94.4 | 90 | -158 | 70.9 | 106 | 48.3 | 85.8 | 81.1 | -39.2 | 8.99 | 78.8 | – | – | – | –
Nc1nc2[nH]cnc2c(=S)[nH]1 [Thioguanine] (10000 nM) | 97.7 | 91.9 | 96.2 | 103 | 97.4 | 97.6 | 51.8 | 101 | 83.7 | 85.2 | 103 | 106 | 108 | 87 | 93.2 | 133 | 80.3 | 92.2 | – | – | – | –
Nc1ncn([C@@H]2O[C@H](CO)[C@@H](O)[C@H]2O)c(=O)n1 [Azacitidine] | – | – | – | – | – | – | – | – | – | – | – | – | – | – | – | – | – | – | 1.27 | 0 | 2.36 | 0
Cc1sc2c(c1C)C(c1ccc(Cl)cc1)=N[C@@H](CC(=O)OC(C)(C)C)c1nnc(C)n1-2 [(+)JQ1] | – | – | – | – | – | – | – | – | – | – | – | – | – | – | – | – | – | – | 0 | 12.7 | 6.56 | 5.66
O=NN(CCCl)C(=O)NCCCl [Carmustine] (10000 nM) | 98.7 | 95.3 | 102 | 94.8 | 114 | 99.4 | 138 | 91.3 | 86.4 | 96.9 | 98.8 | 54.2 | 104 | 84.3 | 88.9 | 100 | 100 | 98.7 | – | – | – | –
CC[C@@H]1C(=O)OC[C@@H]1Cc1cncn1C [Pilocarpine] (40000 nM) | 52.5 | 96.7 | 97 | 97.4 | 114 | 93.9 | – | – | 97.7 | 93.1 | 98.6 | 80.7 | 83.9 | 107 | 92.3 | – | 98.4 | 96.3 | – | – | – | –
Nc1ncn([C@@H]2O[C@H](CO)[C@@H](O)[C@H]2O)c(=O)n1 [Azacitidine] (10000 nM) | 96.5 | 86.7 | 92 | 89.7 | 110 | 98.8 | 73.4 | 103 | 93.3 | 75.5 | 80 | 87.7 | 81.2 | 99.8 | 55.6 | 84.9 | 75.7 | 97.7 | – | – | – | –
CC(C)(C)c1cnc(CSc2cnc(NC(=O)C3CCNCC3)s2)o1 [SNS-032] (10000 nM) | 94.1 | 91.7 | 77.1 | 76.7 | 42.8 | 99.2 | 44.3 | 68.4 | 76.1 | -26.5 | 93 | 76.9 | 26.3 | 76 | 94.2 | 41.9 | 81.1 | 91.3 | – | – | – | –
Cc1sc2c(c1C)C(c1ccc(Cl)cc1)=N[C@@H](CC(=O)OC(C)(C)C)c1nnc(C)n1-2 [(+)JQ1] (10000 nM) | 91.3 | 81.4 | 87.9 | 97.8 | 24 | 102 | -39.7 | 87.6 | 68.2 | 62.5 | 92.8 | 123 | 101 | 66.8 | 72.9 | 100 | 14.5 | 50.8 | – | – | – | –
CC1(C)CNc2cc(NC(=O)c3cccnc3NCc3ccncc3)ccc21 [Motesanib] (10000 nM) | 96.7 | 101 | 108 | 97.2 | 94.5 | 101 | 123 | 94.1 | 98.6 | 114 | 98.2 | 94 | 80.4 | 103 | 109 | 86.8 | 101 | 102 | – | – | – | –
